Reference: patent US20240174618A1, “SUBSTITUTED (2-HETEROARYLOXYPHENYL)SULFONATES, SALTS THEREOF AND THEIR USE AS HERBICIDAL AGENTS” (Bayer Aktiengesellschaft, priority 2021, published 2024)

Tests used:
Assay type in all cases: in vivo
Zea mays (ZEAMX) [1] = assay: D. Pre-emergence effect on useful plants, ZEAMX; conditions: useful plant
Description: (§1) Seeds of monocotyledonous and dicotyledonous weed plants and crop plants were placed in plastic or organic planting pots and covered with soil. The compounds of the invention, formulated in the form of wettable powders (WP) or as emulsion concentrates (EC), were then applied to the surface of the covering soil as aqueous suspension or emulsion with addition of 0.5% additive at a water application rate equivalent to 600 l/ha (converted). After the treatment, the pots were placed in a greenhouse and kept under good growth conditions for the test plants. After about 3 weeks, the efficacy of the preparations was scored visually in comparison with untreated controls as percentages. For example, • 100% efficacy=plants have died, • 0% efficacy=like untreated control plants.
Tables D1a to D5b below show the effects of selected compounds of the general formula (I) according to table 1 on various useful plants at an application rate corresponding to 320 g/ha or less, which were obtained by the experimental procedure mentioned above.

[2] = test system: Digitaria sanguinalis (DIGSA); assay: C. Herbicidal pre-emergence efficacy, DIGSA; conditions: scored after about 3 weeks
Description: as §1
(§2) Tables C1a to C14b below show the effects of selected compounds of the general formula (I) according to table 1 on various harmful plants at an application rate corresponding to 320 g/ha or less, which were obtained by the experimental procedure mentioned above.

[3] = test system: Abutilon theophrasti (ABUTH); assay: B. Herbicidal post-emergence efficacy, ABUTH; conditions: rated visually after about 3 weeks
How it was run: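 First, seeds were sown in sandy loam and grown 2 to 3 weeks under controlled greenhouse conditions. Next, foliage at the one-leaf stage received the formulated compound in water with 0.5% additive (600 L/ha, 1280 g/ha or less). Finally, damage was rated visually after about 3 weeks against untreated plants.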

Zea mays (ZEAMX) [4] = assay: F. Post-emergence effect on useful plants, ZEAMX; conditions: useful plant
Description: (§3) Seeds of monocotyledonous and dicotyledonous weeds and crop plants were placed in sandy loam in plastic or organic planting pots, covered with soil and cultivated in a greenhouse under controlled growth conditions. 2 to 3 weeks after sowing, the test plants were treated at the one-leaf stage. The compounds of the invention, formulated in the form of wettable powders (WP) or as emulsion concentrates (EC), were then sprayed onto the green parts of the plants as aqueous suspension or emulsion with addition of 0.5% additive at a water application rate of 600 l/ha (converted). After the test plants had been kept in the greenhouse under optimum growth conditions for about 3 weeks, the activity of the preparations was rated visually in comparison to untreated controls.
(§4) For example, • 100% efficacy=plants have died, • 0% action=like untreated control plants.
Tables F1a to F4 below show the effects of selected compounds of the general formula (I) according to table 1 on various useful plants at an application rate corresponding to 320 g/ha or less, which were obtained by the experimental procedure mentioned above.

[5] = test system: Digitaria sanguinalis (DIGSA); assay: E. Herbicidal post-emergence efficacy, DIGSA; conditions: application rate 320 g/ha
Description: as §3, §4
Tables E1a to E12b below show the effects of selected compounds of the general formula (I) according to table 1 on various harmful plants at an application rate corresponding to 320 g/ha or less, which were obtained by the experimental procedure mentioned above.

[6] = test system: Matricaria inodora (MATIN); assay: C. Herbicidal pre-emergence efficacy, MATIN; conditions: scored after about 3 weeks
Description: as §1, §2

Compound | Pre-emergence efficacy against ZEAMX in % (Zea mays (ZEAMX) [1]; application rate 80 g/ha) | Pre-emergence efficacy against DIGSA ([2]; 80 g/ha) | Pre-emergence efficacy against DIGSA ([2]; 320 g/ha) | Post-emergence efficacy against ABUTH in % ([3]; 1280 g/ha) | Pre-emergence efficacy against ZEAMX in % (Zea mays (ZEAMX) [1]; application rate 320 g/ha) | Post-emergence efficacy against ZEAMX in % (Zea mays (ZEAMX) [4]; application rate 80 g/ha) | Post-emergence efficacy against ZEAMX in % (Zea mays (ZEAMX) [4]; application rate 320 g/ha) | Post-emergence efficacy against ABUTH in % ([3]; 320 g/ha) | Post-emergence efficacy against ABUTH in % ([3]; 80 g/ha) | Post-emergence efficacy against DIGSA in % [5] | Pre-emergence efficacy against MATIN ([6]; 320 g/ha) | Pre-emergence efficacy against MATIN ([6]; 80 g/ha)
Cc1cccc(OS(=O)(=O)CCCCl)c1Oc1ncc(Cl)cn1 [Example I-12] | 20% | 90% | 100% | – | – | – | – | – | – | – | – | –
O=S(=O)(CCCCl)Oc1cccc(F)c1Oc1ncc(Cl)cn1 [Example I-13] | 10% | – | – | 90% | 20% | 20% | 20% | – | – | – | – | –
CCCCCS(=O)(=O)Oc1ccccc1Oc1ncc(Cl)cn1 [Example I-24] | 0% | 90% | 100% | 90% | 0% | 20% | – | 90% | – | – | – | –
CC(C)CCS(=O)(=O)Oc1ccccc1Oc1ncc(Cl)cn1 [Example I-25] | 0% | 100% | 100% | 100% | – | – | – | 90% | – | – | – | –
Cc1cccc(Oc2ncc(Cl)cn2)c1OS(=O)(=O)CCCC(F)(F)F [Example I-28, 2-[(5-Chloropyrimidin-2-yl)oxy]-6-methylphenyl 4,4,4-trifluorobutane-1-sulfonate] | – | – | – | 100% | – | – | – | 100% | – | – | – | –
Cc1cccc(Oc2ncc(Cl)cn2)c1OS(=O)(=O)CCC(F)(F)F [Example I-29] | – | – | – | 100% | – | – | – | 100% | 90% | – | – | –
O=S(=O)(CCCC(F)(F)F)Oc1c(Br)cccc1Oc1ncc(Cl)cn1 [Example I-30] | – | – | – | 100% | – | – | – | 90% | 90% | – | – | –
O=S(=O)(CCC(F)(F)F)Oc1c(Br)cccc1Oc1ncc(Cl)cn1 [Example I-31] | – | – | – | 100% | – | – | – | 100% | 90% | – | – | –
O=S(=O)(CCCC(F)(F)F)Oc1c(Cl)cccc1Oc1ncc(Br)cn1 [Example I-34] | – | 90% | 100% | 100% | – | – | – | 100% | 90% | 90% | – | –
C=CCS(=O)(=O)Oc1ccccc1Oc1ncc(Cl)cn1 [Example I-36] | 0% | – | 100% | – | – | 0% | 0% | – | – | – | – | –
O=S(=O)(CCC(F)(F)F)Oc1c(Br)cccc1Oc1ncc(F)cn1 [Example I-43] | 0% | – | 100% | 100% | – | 0% | 0% | 90% | – | – | 80% | –
C=CCCS(=O)(=O)Oc1c(F)cccc1Oc1ncc(Cl)cn1 [Example I-50] | 0% | 100% | 100% | 90% | – | – | – | 90% | – | – | – | –
COCCS(=O)(=O)Oc1c(F)cccc1Oc1ncc(Cl)cn1 [Example I-52] | 0% | 80% | 100% | 90% | – | 0% | 0% | – | – | – | – | –
O=S(=O)(CC1CC1(Cl)Cl)Oc1c(F)cccc1Oc1ncc(Cl)cn1 (stereo not drawn) [Example I-57] | – | – | – | 90% | – | – | – | 90% | 90% | – | – | –
O=S(=O)(CCCC(F)(F)C(F)(F)F)Oc1c(F)cccc1Oc1ncc(Cl)cn1 [Example I-68] | 10% | 100% | 100% | 100% | – | – | – | 100% | 100% | 90% | 100% | 90%
O=S(=O)(CCC(F)=C(F)F)Oc1c(F)cccc1Oc1ncc(Cl)cn1 [Example I-70] | – | 100% | 100% | – | – | 20% | – | – | – | 90% | – | –
